The subject of one test is β1AR-m23. Kind of test: Ligand efficacy at β1AR-m23. The class given is cell-based, turkey (Meleagris gallopavo). To be noted: β1AR-m23, Supplementary Table 3.
In a further test the test system is human β1AR. The following applies: no reference given; cited from earlier work.

We go through one molecule from paper PMC3023143 (Nature, 2011).

`CC(CCc1ccc(O)cc1)NCCc1ccc(O)c(O)c1` (centres unmarked) [Dobutamine, dobutamine]: the ligand efficacy class entry in the test on β1AR-m23 and with human β1AR was “partial agonists” each time.
